The values that follow come from patent publication US20110165115A1, “SYNERGISTIC ATTRACTANTS FOR PESTIFEROUS SOCIAL INSECTS” (STERLING INTERNATIONAL INC., priority 2010, published 2011).

One assay deals with P. dominulus. Description: Field trapping Experiment 1, Rescue W•H•Y traps. It is filed as in vivo, Polistes dominulus. The note with it: Exp 1; HIPV added to WHY attractant in the top chamber, or WHY alone. The protocol:
(§1) Three field trapping experiments were carried out during late July to early August 2009, in residential and woody areas around Spokane, Wash., USA, using the newly marketed Rescue® W•H•Y traps (www.rescue.com). As used herein, the W•H•Y trap is a trap in accordance with the description of United States Patent Application Publication No. 2009/0151228. The W•H•Y trap has a top chamber and a bottom chamber. The top chamber is baited with two attractants—one of which is a solid contained in a vial (2-methyl-1-butanol) and the other a liquid mixed with water (acetic acid), herein referred to as the W•H•Y top attractant. The bottom chamber is baited with a liquid attractant (heptyl butyrate) poured onto a cotton pad, herein referred to as the W•H•Y bottom attractant. Separation of the top and bottom attractants (otherwise antagonistic to each other when released from the same chamber) in two chambers was a design feature of this trap and creates two focal attraction sources from one trap for different species of wasps, hornets, and yellowjackets. Traps were hung 1.5-2.0 m above the ground on either the fence or tree branches ca. 5 m apart within each trap line. For each trapping experiment, six sets of traps were deployed with their initial trap positions within each set being randomized. To minimize positional effects and obtain more replications, wasp collections and trap re-randomization were carried out when ≧10-20 wasps were caught in the best trap. Each replicate lasted several days depending on wasp flight activity. Captured wasps were removed from the traps and kept in the zip-bags before taking back to the laboratory for recording of the species, gender status, and catch.
(§2) Experiment 3 (Aug. 5-13, 2009) was conducted to determine the potential behavioral activity of different doses of (E)-4,8-dimethyl-1,3,7-nonatriene alone. The individual (or different doses) HIPVs were loaded into either polyethylene bags or centrifuge tube type of dispensers, and released from the top of the W•H•Y trap chamber. W•H•Y trap attractants (both top and bottom or top only) alone and water (top chamber only) were included in the test as positive and blank controls, respectively. The dispenser types, loading and release rates of the tested semiochemicals are described in Tables 1, 2 and 3.
(§3) Trap catch data were converted to proportion (P) of total captured wasps within each replicate. Data were then transformed by arcsin√P to meet the assumptions of normality and homogeneity of variances for ANOVA. Means were compared by ANOVA followed by the Ryan-Einot-Gabriel-Welsh (REGW) multiple Q test (SPSS 16.0 for Windows) at α=0.05.

A further assay relates to D. arenaria. Description: Field trapping Experiment 1, Rescue W•H•Y traps. It counts as in vivo, Dolichovespula arenaria. The note with it: Exp 1; HIPV added to WHY attractant in the top chamber, or WHY alone. As for the experimental part: as §1
Experiment 1 (Jul. 22-30, 2009) tested ten synthetic HIPV candidates [(E)-2-hexenal, (Z)-3-hexen-1-ol, (Z)-3-hexenyl acetate, cis-ocimene, linalool, methyl salicylate, geranyl acetate, trans-β-caryophyllene, trans-β-farnesene and (E)-4,8-dimethyl-1,3,7-nonatriene], including several paper wasp EAD-active compounds (see FIG. 2 for details), to determine their potential synergistic effect on the Rescue® W•H•Y trap attractants to paper wasps, yellowjackets, and hornets. Experiment 2 (Aug. 5-13, 2009) tested behavioral responses of the paper wasps and yellowjackets to the Rescue® W•H•Y trap attractants (top attractants only) and its combination with (E)-4,8-dimethyl-1,3,7-nonatriene, one of the EAD-active and behaviorally significant HIPVs, in a dose-response fashion. Experiment 3 (Aug. 5-13, 2009) was conducted to determine the potential behavioral activity of different doses of (E)-4,8-dimethyl-1,3,7-nonatriene alone. The individual (or different doses) HIPVs were loaded into either polyethylene bags or centrifuge tube type of dispensers, and released from the top of the W•H•Y trap chamber. W•H•Y trap attractants (both top and bottom or top only) alone and water (top chamber only) were included in the test as positive and blank controls, respectively. The dispenser types, loading and release rates of the tested semiochemicals are described in Tables 1, 2 and 3.
as §3

The subject of assay [1] is Polistes dominulus worker antennae. Description: GC-EAD of cherry branch aeration samples. The protocol:
Lapin cherry branches with severely damaged cherries and leaves and undamaged or slightly damaged branches were collected from a cherry orchard at Creston, Canada, on Jul. 29, 2009, and were transported to the Sterling International, Inc. lab (Spokane, Wash.) on the same day and kept at 4° C. before aerations. Headspace volatiles from the cherry branches (damaged or undamaged) were sampled by a battery operated pump and a high density polyacetate oven bag (48.2×59.6 cm Reynolds® Oven Bag; Richmond, Va., USA) enclosure with one activated charcoal filter tube in the air inlet, on Jul. 30, 2009. The volatiles in the enclosure were trapped on one Porapak Q tube (50/80 mesh; 30 mg in Teflon tube: 3 mm×35 mm) for 2.5 hr (airflow 300 ml/min) and extracted with 1 ml redistilled pentane. Aeration samples of the cherry branches (damaged or undamaged/slightly damaged) were injected (3 μl) splitless into a Varian CP-3800 GC equipped with a polar column (HP-INNOWax; 30 m×0.53 mm×1.0 μm film thickness; […] Helium was used as the carrier gas, and the injector and detector temperatures were 250° C. and 300° C., respectively. Column temperature was 50° C. for 1 min, rising to 240° C. at 10° C./min, and then held for 10 min. The outlet for the EAD was held in a humidified air stream flowing at 0.5 m/sec over the antennal preparation. EAD recordings were made using silver wire-glass capillary electrodes filled with Beadle-Ephrussi Ringer on freshly cut antennae. The antennal signals were stored and analyzed on a PC equipped with a serial IDAC interface box and the program EAD ver. 2.5 (Syntech, Hilversum, The Netherlands). […] (See FIG. 2.) The same chemicals were also tested on beneficial insect antennae from Chrysopa oculata, Myrmeleon crudelis, Podisus maculiventris, and Hippodarnia convergens. (See […] active peaks in the aeration samples were identified by GC-MS on an HP 6890 GC series coupled with an HP 5973 Mass Selective Detector using the same type of GC column and conditions as described above. Compounds were identified by comparison of retention times with those of authentic standards and with mass spectra of standards.

The next assay deals with P. aurifer. Description: Field trapping Experiment 1, Rescue W•H•Y traps. It counts as in vivo, Polistes aurifer. The note with it: Exp 1; HIPV added to WHY attractant in the top chamber, or WHY alone. The protocol: as §1, §2, §3
The mark [2] stands for this setting: aeration of severely damaged cherry branches, at current release rates.
Setting [3] is: aeration of undamaged or slightly damaged cherry branches.

Take `C=C/C=C(\C)CCC=C(C)C` [(E)-4,8-dimethyl-1,3,7-nonatriene]: the “Total Paper Wasps P. dominulus” value with P. dominulus came to 152. In the assay with D. arenaria, the “Total Yellowjacket Catches D. arenaria” value worked out at 7. For the same compound, the “EAD response of worker antennae” value in assay [1] (setting [2]) is recorded as “significant EAD response”. The “Total Paper Wasps P. aurifer” value in the assay on P. aurifer came out at 12.
For `COC(=O)c1ccccc1O` [Methyl Salicylate, methyl salicylate], the “Total Paper Wasps P. dominulus” value with P. dominulus worked out at 33. Besides, the “Total Yellowjacket Catches D. arenaria” value in the assay on D. arenaria is on record as 4. In assay [1] (setting [2]), the “EAD response of worker antennae” value was “did not elicit significant EAD-responses”. The “Total Paper Wasps P. aurifer” value with P. aurifer was 6.
For `CC/C=C\CCO` [Z-3-Hexanol, (Z)-3-hexen-1-ol], the “Total Paper Wasps P. dominulus” value with P. dominulus was found to be 25. Moreover, the “Total Yellowjacket Catches D. arenaria” value in the assay with D. arenaria came out at 1. For the same compound, the “EAD response of worker antennae” value was “did not elicit significant EAD-responses” in assay [1] (setting [2]) and “strongly responded” in assay [1] (setting [3]). Besides, the “Total Paper Wasps P. aurifer” value in the assay on P. aurifer stood at 4.
As to `CC/C=C\CCOC(C)=O` [Z-3-Hexenyl Acetate, (Z)-3-hexenyl acetate], the “Total Paper Wasps P. dominulus” value in the assay on P. dominulus is listed as 40. In the assay with D. arenaria, the “Total Yellowjacket Catches D. arenaria” value amounted to 8. The “EAD response of worker antennae” value in assay [1] (setting [2]) was “did not elicit significant EAD-responses”; in assay [1] (setting [3]) it was “strongly responded”. The “Total Paper Wasps P. aurifer” value in the assay with P. aurifer is on record as 9.
